Data on 30 molecules can be found in patent US20160340322A1 (NISSAN CHEMICAL INDUSTRIES, LTD., priority 2013, published 2016).

T1 sequence (O95180 whole entry): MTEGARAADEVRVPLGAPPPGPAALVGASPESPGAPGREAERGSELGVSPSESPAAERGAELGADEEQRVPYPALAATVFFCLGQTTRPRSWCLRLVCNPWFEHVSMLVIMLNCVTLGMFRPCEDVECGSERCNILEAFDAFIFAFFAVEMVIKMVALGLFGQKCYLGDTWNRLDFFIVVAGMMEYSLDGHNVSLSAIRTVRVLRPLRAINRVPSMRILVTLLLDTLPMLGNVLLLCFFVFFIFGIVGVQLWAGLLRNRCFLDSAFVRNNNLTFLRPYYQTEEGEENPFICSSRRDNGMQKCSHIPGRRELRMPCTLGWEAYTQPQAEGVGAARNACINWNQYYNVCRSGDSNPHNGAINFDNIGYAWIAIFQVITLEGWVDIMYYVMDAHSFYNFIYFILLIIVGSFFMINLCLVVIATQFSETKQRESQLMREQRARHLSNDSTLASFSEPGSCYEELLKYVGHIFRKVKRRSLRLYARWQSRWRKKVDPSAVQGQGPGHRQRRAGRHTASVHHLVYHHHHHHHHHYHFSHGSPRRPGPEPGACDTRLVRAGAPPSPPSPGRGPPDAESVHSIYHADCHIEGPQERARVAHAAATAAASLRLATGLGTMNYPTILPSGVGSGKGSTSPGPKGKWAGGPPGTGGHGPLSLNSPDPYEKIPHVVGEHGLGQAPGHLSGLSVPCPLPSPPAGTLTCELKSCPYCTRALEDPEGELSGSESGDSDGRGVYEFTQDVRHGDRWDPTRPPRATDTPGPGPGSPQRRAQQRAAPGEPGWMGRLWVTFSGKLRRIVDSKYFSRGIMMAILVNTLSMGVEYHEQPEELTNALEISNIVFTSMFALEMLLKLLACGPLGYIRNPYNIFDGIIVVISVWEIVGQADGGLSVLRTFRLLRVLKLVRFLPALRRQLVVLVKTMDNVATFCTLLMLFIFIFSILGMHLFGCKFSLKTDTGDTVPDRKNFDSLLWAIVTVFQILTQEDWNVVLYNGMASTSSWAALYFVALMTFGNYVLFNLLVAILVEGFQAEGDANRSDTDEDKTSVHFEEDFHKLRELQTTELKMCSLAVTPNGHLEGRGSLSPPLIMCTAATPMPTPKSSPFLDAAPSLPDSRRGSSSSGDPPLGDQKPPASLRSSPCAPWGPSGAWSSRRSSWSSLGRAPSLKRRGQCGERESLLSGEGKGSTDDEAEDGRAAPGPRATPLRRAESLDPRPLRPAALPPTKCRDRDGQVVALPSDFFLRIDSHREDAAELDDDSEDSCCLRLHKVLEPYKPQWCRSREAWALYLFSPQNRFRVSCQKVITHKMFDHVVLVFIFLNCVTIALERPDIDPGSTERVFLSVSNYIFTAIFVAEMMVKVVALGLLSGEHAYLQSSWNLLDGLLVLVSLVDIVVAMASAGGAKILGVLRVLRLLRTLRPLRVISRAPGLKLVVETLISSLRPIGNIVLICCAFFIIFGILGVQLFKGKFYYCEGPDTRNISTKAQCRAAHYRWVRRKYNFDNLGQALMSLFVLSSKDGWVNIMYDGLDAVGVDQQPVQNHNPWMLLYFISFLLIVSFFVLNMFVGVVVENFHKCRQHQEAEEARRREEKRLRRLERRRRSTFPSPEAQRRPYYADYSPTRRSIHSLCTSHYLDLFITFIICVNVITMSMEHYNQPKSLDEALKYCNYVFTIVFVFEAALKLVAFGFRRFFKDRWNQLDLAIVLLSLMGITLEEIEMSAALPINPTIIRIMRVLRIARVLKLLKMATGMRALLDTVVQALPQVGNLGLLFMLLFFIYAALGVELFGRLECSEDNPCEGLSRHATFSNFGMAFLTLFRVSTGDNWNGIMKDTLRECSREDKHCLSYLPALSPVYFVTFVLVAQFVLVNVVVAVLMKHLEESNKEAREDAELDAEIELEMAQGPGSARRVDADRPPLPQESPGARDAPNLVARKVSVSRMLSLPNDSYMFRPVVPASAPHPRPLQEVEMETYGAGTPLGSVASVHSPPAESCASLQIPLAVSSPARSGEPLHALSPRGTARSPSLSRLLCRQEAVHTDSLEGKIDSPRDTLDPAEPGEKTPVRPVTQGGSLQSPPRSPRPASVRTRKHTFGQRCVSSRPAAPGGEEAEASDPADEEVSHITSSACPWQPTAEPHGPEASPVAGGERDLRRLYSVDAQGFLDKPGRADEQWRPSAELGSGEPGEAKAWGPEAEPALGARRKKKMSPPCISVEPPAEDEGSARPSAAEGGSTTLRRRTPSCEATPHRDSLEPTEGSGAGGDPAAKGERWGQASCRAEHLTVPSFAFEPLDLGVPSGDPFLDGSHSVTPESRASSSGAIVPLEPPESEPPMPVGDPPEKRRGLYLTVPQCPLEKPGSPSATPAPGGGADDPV

The experiment concerns the target T1, Human T-type calcium channel (Cav 3.2) (Homo sapiens, UniProt O95180).
T1 construct: Edward Perez-Reyes, University of Virginia, USA; host or cells: HEK293
As to the kind of experiment: Calcium Influx Inhibition Assay. It is filed as cell-based. To be noted: human T-type calcium channel (Cav 3.2) expressing HEK293 cells; FLIPR Calcium 4 fluorescence; 30 min compound incubation; read-out: T-type calcium channel inhibition concentration IC50. Here is the method: 1. Calcium Influx Inhibition Assay Human T-type calcium channel (Cav 3.2) expressing HEK293 cells were introduced from Prof. Edward Perez-Reyes, University of Virginia, USA. The calcium-sensitive fluorescent dye used was FLIPR Calcium 4 Assay Kit (Molecular Devices). To a black 96-well plate with a clear bottom coated with type I collagen, the human T-type calcium channel (Cav 3.2) expressing HEK293 cells were seeded and cultured overnight, and the culture medium was removed. A solution of the calcium-sensitive fluorescent dye was added, and the resultant plate was incubated at 37° C. in an atmosphere of 5% carbon dioxide for 30 minutes. To the plate, a diluted solution of a compound was added, and subjected to further incubation at 37° C. in an atmosphere of 5% carbon dioxide for 30 minutes. While fluorescence was continuously analyzed from the bottom with a FlexStation 3 (Molecular Devices), a calcium solution was added. […] Based on the rise value in the fluorescence from the base line, the inhibition percentage was calculated. The logarithms of compound concentrations were plotted with respect to the inhibition activities to obtain an IC50 value.
`O=c1nc(N2Cc3ccc(OC(F)F)cc3C(O)C2)cnn1Cc1ccc(C(F)(F)F)s1` (stereo not drawn): the IC50 is 64 nM.
As to `O=c1nc(N2CCN(c3ccc(F)cc3)CC2)cnn1Cc1ccc(Cl)cc1` [Synthesis Example 1, 2-(4-Chlorobenzyl)-5-[4-(4-fluorophenyl)piperazin-1-yl]-1,2,4-triazin-3(2H)-one], the IC50 turned out to be 220 nM.
For the molecule `CCCCCCOc1ccc(Cn2ncc(N3CCN(c4ccc(F)cc4)CC3)nc2=O)cc1` [Synthesis Example 2, 5-[4-(4-Fluorophenyl)piperazin-1-yl]-2-[4-(hexyloxy)benzyl]-1,2,4-triazin-3(2H)-one], the IC50 came out at 38 nM.
As to `O=c1nc(N2CCN(c3ccc(F)cc3)CC2)cnn1Cc1ccc(OCc2ccc(Cl)cc2)cc1` [Synthesis Example 3, 2-{4-[(4-Chlorobenzyl)oxy]benzyl}-5-[4-(4-fluorophenyl)piperazin-1-yl]-1,2,4-triazin-3(2H)-one], the IC50 turned out to be 200 nM.
Take `O=c1nc(N2CCN(c3ccc(F)cc3)CC2)cnn1Cc1ccc(OCc2ccc(F)cc2)cc1` [Synthesis Example 4, 2-{4-[(4-Fluorobenzyl)oxy]benzyl}-5-[4-(4-fluorophenyl)piperazin-1-yl]-1,2,4-triazin-3(2H)-one]: the IC50 is 35 nM.
Regarding `O=c1nc(N2CCN(c3ccc(F)cc3)CC2)cnn1Cc1ccc(C(F)(F)F)s1` [Synthesis Example 5, 5-[4-(4-Fluorophenyl)piperazin-1-yl]-2-{[5-(trifluoromethyl)thiophen-2-yl]methyl}-1,2,4-triazin-3(2H)-one], the IC50 worked out at 27 nM.
Regarding `O=c1nc(N2CC=C(c3ccc(F)cc3)CC2)cnn1Cc1ccc(C(F)(F)F)s1` [Synthesis Example 6, 5-[4-(4-Fluorophenyl)-5,6-dihydropyridine-1(2H)-yl]-2-{[5-(trifluoromethyl)thiophen-2-yl]methyl}-1,2,4-triazin-3(2H)-one], the IC50 stood at 24 nM.
The value for `O=c1nc(N2CC=C(c3ccc(F)cc3)[C@@H](O)C2)cnn1Cc1ccc(C(F)(F)F)s1` [Synthesis Example 7, (R)-5-[4-(4-Fluorophenyl)-5-hydroxy-5,6-dihydropyridin-1(2H)-yl]-2-{[5-(trifluoromethyl)thiophene-2-yl]methyl}-1,2,4-triazin-3(2H)-one] was 6 nM; that for `Cc1ccc(N2CCN(c3cnn(Cc4ccc(C(F)(F)F)s4)c(=O)n3)CC2)nc1` [Synthesis Example 8, 5-[4-(5-methylpyridin-2-yl)piperazin-1-yl]-2-{[5-(trifluoromethyl)thiophene-2-yl]methyl}-1,2,4-triazin-3(2H)-one] was 210 nM.
As to `O=c1nc(N2CCc3c([nH]c4cc(F)ccc34)C2)cnn1Cc1ccc(C(F)(F)F)s1` [Synthesis Example 9, 5-(7-Fluoro-3,4-dihydro-1H-pyrido[3,4-b]indol-2(9H)-yl)-2-{[5-(trifluoromethyl)thiophen-2-yl]methyl}-1,2,4-triazin-3(2H)-one], the IC50 stood at 17 nM.
The same measure for `O=c1nc(N2CCN(c3ccc(F)cc3)CC2)cnn1Cc1cnc(C(F)(F)F)s1` [Synthesis Example 10, 5-[4-(4-Fluorophenyl)piperazin-1-yl]-2-{[2-(trifluoromethyl)thiazol-5-yl]methyl}-1,2,4-triazin-3(2H)-one]: 490 nM; for `O=c1nc(N2CC=C(c3ccc(F)cc3)[C@@H](O)C2)cnn1Cc1cnc(C(F)(F)F)s1` [Synthesis Example 11, (R)-5-[4-(4-Fluorophenyl)-5-hydroxy-5,6-dihydropyridin-1(2H)-yl]-2-{[2-(trifluoromethyl)thiazol-5-yl]methyl}-1,2,4-triazin-3(2H)-one]: 30 nM.
Take `Cc1cc(C2=CCN(c3cnn(Cc4cnc(C(F)(F)F)s4)c(=O)n3)C[C@@H]2O)cs1` [Synthesis Example 12, (R)-5-[5-Hydroxy-4-(5-methylthiophen-3-yl)-5,6-dihydropyridin-1(2H)-yl]-2-{[2-(trifluoromethyl)thiazol-5-yl]methyl}-1,2,4-triazin-3(2H)-one]: the IC50 turned out to be 26 nM.
On to `Cc1ccc(N2CCN(c3cnn(Cc4cnc(C(F)(F)F)s4)c(=O)n3)CC2)nc1` [Synthesis Example 13, 5-[4-(5-Methylpyridin-2-yl)piperazin-1-yl]-2-{[2-(trifluoromethyl)thiazol-5-yl]methyl}-1,2,4-triazine-3(2H)-one], for which the IC50 was determined as 6100 nM.
As to `O=c1nc(N2CCc3c([nH]c4cc(F)ccc34)C2)cnn1Cc1cnc(C(F)(F)F)s1` [Synthesis Example 14, 5-(7-Fluoro-3,4-dihydro-1H-pyrido[3,4-b]indol-2(9H)-yl)-2-{[2-(trifluoromethyl)thiazol-5-yl]methyl}-1,2,4-triazin-3(2H)-one], the IC50 was 39 nM.
Turning to `Cc1cc(C2=CCN(c3cnn(Cc4ccc(C(F)(F)F)s4)c(=O)n3)C[C@@H]2O)cs1` [Synthesis Example 15, (R)-5-[5-Hydroxy-4-(5-methylthiophen-3-yl)-5,6-dihydropyridin-1(2H)-yl]-2-{[5-(trifluoromethyl)thiophen-2-yl]methyl}-1,2,4-triazin-3(2H)-one], the IC50 came to 1 nM.
The value for `CCOc1ccc2c(c1)C(O)CN(c1cnn(Cc3ccc(C(F)(F)F)s3)c(=O)n1)C2` (stereo not drawn) [Synthesis Example 16] was 180 nM; that for `Cc1csc(C2=CCN(c3cnn(Cc4cnc(C(F)(F)F)s4)c(=O)n3)C[C@@H]2O)c1` [Synthesis Example 17] was 200 nM; that for `CCOc1ccc2c(c1)C(O)CN(c1cnn(Cc3cnc(C(F)(F)F)s3)c(=O)n1)C2` (stereo not drawn) [Synthesis Example 18, 5-[6-Ethoxy-4-hydroxy-3,4-dihydroisoquinolin-2(1H)-yl]-2-{[2-(trifluoromethyl)thiazol-5-yl]methyl}-1,2,4-triazin-3(2H)-one] was 2900 nM.
`COc1ccc2c(c1)CCN(c1cnn(Cc3cnc(C(F)(F)F)s3)c(=O)n1)C2C` (stereo not drawn) [Synthesis Example 19]: the IC50 stood at 2200 nM.
As to `O=c1nc(N2CCN(c3ccc(Cl)cc3)CC2)cnn1Cc1cnc(C(F)(F)F)s1` [Synthesis Example 20, 5-[4-(4-Chlorophenyl)piperazin-1-yl]-2-{[2-(trifluoromethyl)thiazol-5-yl]methyl}-1,2,4-triazin-3(2H)-one], the IC50 came out at 190 nM.
`O=c1nc(N2CCN(c3ccc(F)c(Cl)c3)CC2)cnn1Cc1cnc(C(F)(F)F)s1` [Synthesis Example 21, 5-[4-(3-Chloro-4-fluorophenyl)piperazin-1-yl]-2-{[2-(trifluoromethyl)thiazol-5-yl]methyl}-1,2,4-triazin-3(2H)-one]: the IC50 came to 230 nM.
In the case of `O=c1nc(N2CC=C(c3ccc(F)cc3)C(F)C2)cnn1Cc1cnc(C(F)(F)F)s1` (stereo not drawn) [Synthesis Example 22, 5-[5-Fluoro-4-(4-fluorophenyl)-5,6-dihydropyridin-(2H)-yl]-2-{[2-(trifluoromethyl)thiazol-5-yl]methyl}-1,2,4-triazin-3(2H)-one], the IC50 came to 120 nM.
Turning to `Cc1cc(N2CCN(c3cnn(Cc4cnc(C(F)(F)F)s4)c(=O)n3)CC2)cs1` [Synthesis Example 23, 5-[4-(5-Methylthiophen-3-yl)piperazin-1-yl]-2-{[2-(trifluoromethyl)thiazol-5-yl]methyl}-1,2,4-triazin-3(2H)-one], the IC50 is 670 nM.
For the molecule `Cn1cc(C2=CCN(c3cnn(Cc4cnc(C(F)(F)F)s4)c(=O)n3)C[C@@H]2O)cn1` [Synthesis Example 24, (R)-5-[5-Hydroxy-4-(1-methyl-1H-pyrazol-4-yl)-5,6-dihydropyridin-1(2H)-yl]-2-{[2-(trifluoromethyl)thiazol-5-yl]methyl}-1,2,4-triazin-3(2H)-one], the IC50 is 4900 nM.
Turning to `O=c1nc(N2Cc3ccc(O)cc3C(O)C2)cnn1Cc1ccc(C(F)(F)F)s1` (stereo not drawn) [Synthesis Example 25, 5-[4,6-Dihydroxy-3,4-dihydroisoquinolin-2(1H)-yl]-2-{[5-(trifluoromethyl)thiophen-2-yl]methyl}-1,2,4-triazin-3(2H)-one], the IC50 was found to be 1800 nM.
On to `O=c1nc(N2CC=C(c3ccc(F)cc3)[C@@H](O)C2)cnn1Cc1ccc(C(F)(F)F)o1` [Synthesis Example 27, (R)-5-[4-(4-Fluorophenyl)-5-hydroxy-5,6-dihydropyridin-1(2H)-yl]-2-{[5-(trifluoromethyl)furan-2-yl]methyl}-1,2,4-triazin-3(2H)-one], for which the IC50 came out at 130 nM.
The same measure for `O=c1nc(N2CC=C(c3ccc(F)cc3)[C@@H](O)C2)cnn1Cc1ccc(OC(F)F)nc1` [Synthesis Example 28, (R)-2-{[6-(Difluoromethoxy)pyridin-3-yl]methyl}-5-[4-(4-fluorophenyl)-5-hydroxy-5,6-dihydropyridin-1(2H)-yl]-1,2,4-triazin-3(2H)-one]: 94 nM; for `COc1nc(C2=CCN(c3cnn(Cc4ccc(C(F)(F)F)s4)c(=O)n3)C[C@@H]2O)ccc1Cl` [Synthesis Example 29, (R)-5-[5-Chloro-5′-hydroxy-6-methoxy-5′,6′-dihydro-(2,4′-bipyridine)-1′(2′H)-yl]-2-{[5-(trifluoromethyl)thiophen-2-yl]methyl}-1,2,4-triazin-3(2H)-one]: 12 nM; for `Cc1cc(F)ccc1C1=CCN(c2cnn(Cc3ccc(C(F)(F)F)s3)c(=O)n2)C[C@@H]1O` [Synthesis Example 30, (R)-5-[4-(4-Fluoro-2-methylphenyl)-5-hydroxy-5,6-dihydropyridin-1(2H)-yl]-2-{[5-(trifluoromethyl)thiophen-2-yl]methyl}-1,2,4-triazin-3(2H)-one]: 72 nM.
